Results reported in publication PMC8837544, “Pharmacological inhibition of MERTK induces in vivo retinal degeneration: a multimodal imaging ocular safety assessment” (Archives of Toxicology, 2022).
Values after ≈ are worked out from the molar mass of the structure shown. Values joined by “and” are separate entries in the source; they are usually repeats but may differ in a detail not shown here. Equal values may be shown once.

How the values were obtained:
hERG = hERG (Homo sapiens, UniProt Q12809); conditions: read-out: hERG
HLM intrinsic clearance = assay type: in vitro ADME, human
[1] = MALDI mass spectrometry imaging of whole eye sections (quantitative MSI); assay type: in vivo, C57BL/6 J mice
Method: (§1) All in vivo experimental procedures were conducted in accordance with United Kingdom legislation (Animals (Scientific Procedures) Act, 1986) and were compliant with the ARRIVE guidelines. 6–7-week-old female (20–25 g) C57BL/6 J mice (Charles River Laboratories Ltd, UK) were acclimatized to the facility for 10 days and then randomized to groups based on bodyweight; vehicle control (n = 6, animals 1–6) and MERTK inhibitor treatment (n = 9, animals 7–15). Animals were treated via oral gavage with vehicle control (60% v/v 0.1 M HCl, 20% v/v PEG 400, 20% v/v purified water pH 3.5–4.5) or AZ14145845 (200 mg/kg). All animals were dosed twice daily with a dose volume of 10 mL/kg for 28 days, with the final dose being administered on the morning of Day 29. The dose interval between the first and second dose on each day was 8 h. […] Samples for histopathology were taken from 6 controls (animals 1–6), 8 treated animals (animals 7–11, 13–15) and for electron microscopy from 1 control (animal no. 1) and 3 treated animals (animals 8–10) and for MSI from 3 treated animals (animals 13–15).

Solubility = assay type: physicochemical
Mer = Mer (Homo sapiens, UniProt Q12866)
Method: (§2) Biochemical assays for Mer, Axl, Tyro3 and Flt3 were performed using a Rapidfire LCMS method as previously described (Nissink et al. [2021]). Cellular assays for pMer, pAxl, pTyro3, pFLT3 were performed in transiently transfected Cos-7 (Monkey: African green) cell lines as previously described. The macrophage efferocytosis assay was performed as previously described (Clark et al. [2019]).

Axl [2] = target: T1, Axl (Homo sapiens, UniProt P30530)
Method: as §2

Flt3 = Flt3 (Homo sapiens, UniProt P36888)
Method: as §2

Mouse pharmacokinetics = assay type: in vivo
retina [3] = conditions: mouse, in vivo
Method: as §1

macrophage efferocytosis = test: Macrophage efferocytosis assay; assay type: cell-based
MERTK = MERTK (Homo sapiens, UniProt Q12866); conditions: 1 μM
Axl [4] = target: T1, Axl; conditions: 1 μM
[5] = Human plasma protein binding; assay type: in vitro ADME
[6] = Ocular exposure in the rat (melanin binding); assay type: in vivo; conditions: for eye partition coefficient (Kp): iv infusion 2 μmol/kg/h, 4-h post infusion
Method: Male pigmented Long Evans and non-pigmented Han Wistar rats were treated via intravenous infusion of AZ14145845 at a dose of 2 μmol/kg/h in a TEG:DMA:H2O (1:1:1) formulation, dose volume 4 mL/kg. At 4-h post the 15-min intravenous infusion, the animals were killed and the eyes extracted and homogenized to determine the concentration of AZ14145845 in the eye.

[7] = Bodyweight and tolerability in 28 day mouse safety study; conditions: day 5 onwards, remainder of the study
Method: as §1

LogD7.4 = assay type: physicochemical; conditions: pH 7.4
[8] = 200 mg/kg BID, C57BL/6 J mice, 28 days
Method: as §1
A whole blood sample (32 µL) was collected via a tail vein prick into a K2-EDTA treated capillary tube, centrifuged at 1500g for 10 min at 4 °C, and plasma collected using a micropipette (non-EDTA Ref.no. 172292, Vitrex Medical A/S, Denmark). Samples were collected on Day 1 at 30 min, 2-h, 8-h (pre-second dose) and 24-h post the first dose. On days 7, 28, 29 samples were collected at 2-h post the first dose and at 8-h pre the second dose.

[9] = tested on: Mer kinase Ba/F3 xenograft; conditions: 200 mg/kg, ref McCoull et al. [2021]; cited from earlier work
[10] = Mouse plasma protein binding; assay type: in vitro ADME
retina [11] = test: Retinal histopathology (H&E light microscopy) in 28 day mouse safety study; assay type: in vivo, C57BL/6 J mice
[12] = CaCo2 permeability and efflux; assay type: in vitro ADME
[13] = tested on: ARPE19, human retinal epithelial cells; test: Phagocytosis of photoreceptor outer segments (POS) in human retinal cells; assay type: cell-based; conditions: 3 μM, 6-h incubation, FITC-labeled POS
Method: ARPE19, human retinal epithelial cells, were cultured in Dulbecco’s modified Eagle’s medium (DMEM/F12, supplemented with 10% fetal bovine serum). All culture materials were purchased from Thermo Fisher Scientific. Cells were seeded at 10,000 cells per well in CellCarrier imaging plates (Perkin Elmer) and cultured for up to 6 weeks to allow for polarization of the cell layer. On the day of treatment cells were washed three times in PBS and then incubated in serum free conditions with FITC-labeled POS at a concentration of 10 POS/cell and either DMSO or 3 μM of AZ14145845 in DMSO. Following incubation for 6 h, cells were washed with PBS to remove non-internalized POS and fixed in 4% PFA. Following staining of nuclei with Hoechst, cells were imaged using a […] ImageExpress Confocal microscope. Each well was imaged at 20 × with 16 images taken per well. Analysis modules were written using the custom module editor of MetaXpress vers 6.5.4.532. Nuclei were segmented and enumerated using the embedded count nuclei module. Individual POS particles were segmented and counted on a per image basis using the same custom module. Data are expressed as fold change in total POS per cell over control. Experiments were carried out a minimum of 3 times.

MAP4K5 (KHS1) = MAP4K5 (KHS1) (Homo sapiens, UniProt Q9Y4K4); conditions: 1 μM
retina [14] = conditions: mouse, cited from earlier work
[15] = animals 13-15, 200 mg/kg BID 28 days

Chain of Mer (Q12866 21-999): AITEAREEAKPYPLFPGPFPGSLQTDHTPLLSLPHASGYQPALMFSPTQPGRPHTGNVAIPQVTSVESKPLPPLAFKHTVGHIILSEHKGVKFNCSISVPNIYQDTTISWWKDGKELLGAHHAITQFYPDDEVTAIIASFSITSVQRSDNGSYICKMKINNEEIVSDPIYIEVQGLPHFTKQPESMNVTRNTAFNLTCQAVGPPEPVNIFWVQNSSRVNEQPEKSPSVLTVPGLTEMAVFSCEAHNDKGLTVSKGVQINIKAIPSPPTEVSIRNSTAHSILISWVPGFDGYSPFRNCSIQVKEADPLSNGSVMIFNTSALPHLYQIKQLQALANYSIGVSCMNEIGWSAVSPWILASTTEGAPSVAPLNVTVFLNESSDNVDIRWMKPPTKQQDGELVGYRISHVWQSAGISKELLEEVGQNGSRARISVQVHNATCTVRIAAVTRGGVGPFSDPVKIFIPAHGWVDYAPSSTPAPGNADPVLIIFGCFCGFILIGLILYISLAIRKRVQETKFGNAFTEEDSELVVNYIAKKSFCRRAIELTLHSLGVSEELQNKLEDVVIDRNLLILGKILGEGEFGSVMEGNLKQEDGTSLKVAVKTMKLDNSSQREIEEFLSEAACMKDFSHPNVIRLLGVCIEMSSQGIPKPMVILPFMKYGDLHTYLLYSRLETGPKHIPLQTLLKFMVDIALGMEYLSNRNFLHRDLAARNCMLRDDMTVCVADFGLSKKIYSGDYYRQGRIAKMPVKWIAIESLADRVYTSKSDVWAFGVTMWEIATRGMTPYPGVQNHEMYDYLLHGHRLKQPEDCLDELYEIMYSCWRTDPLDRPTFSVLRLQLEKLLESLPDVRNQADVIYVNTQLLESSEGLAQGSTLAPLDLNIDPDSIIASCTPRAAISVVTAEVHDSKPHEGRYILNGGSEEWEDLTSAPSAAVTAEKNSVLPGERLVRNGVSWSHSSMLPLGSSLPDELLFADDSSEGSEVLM
T1 sequence (P30530 26-894): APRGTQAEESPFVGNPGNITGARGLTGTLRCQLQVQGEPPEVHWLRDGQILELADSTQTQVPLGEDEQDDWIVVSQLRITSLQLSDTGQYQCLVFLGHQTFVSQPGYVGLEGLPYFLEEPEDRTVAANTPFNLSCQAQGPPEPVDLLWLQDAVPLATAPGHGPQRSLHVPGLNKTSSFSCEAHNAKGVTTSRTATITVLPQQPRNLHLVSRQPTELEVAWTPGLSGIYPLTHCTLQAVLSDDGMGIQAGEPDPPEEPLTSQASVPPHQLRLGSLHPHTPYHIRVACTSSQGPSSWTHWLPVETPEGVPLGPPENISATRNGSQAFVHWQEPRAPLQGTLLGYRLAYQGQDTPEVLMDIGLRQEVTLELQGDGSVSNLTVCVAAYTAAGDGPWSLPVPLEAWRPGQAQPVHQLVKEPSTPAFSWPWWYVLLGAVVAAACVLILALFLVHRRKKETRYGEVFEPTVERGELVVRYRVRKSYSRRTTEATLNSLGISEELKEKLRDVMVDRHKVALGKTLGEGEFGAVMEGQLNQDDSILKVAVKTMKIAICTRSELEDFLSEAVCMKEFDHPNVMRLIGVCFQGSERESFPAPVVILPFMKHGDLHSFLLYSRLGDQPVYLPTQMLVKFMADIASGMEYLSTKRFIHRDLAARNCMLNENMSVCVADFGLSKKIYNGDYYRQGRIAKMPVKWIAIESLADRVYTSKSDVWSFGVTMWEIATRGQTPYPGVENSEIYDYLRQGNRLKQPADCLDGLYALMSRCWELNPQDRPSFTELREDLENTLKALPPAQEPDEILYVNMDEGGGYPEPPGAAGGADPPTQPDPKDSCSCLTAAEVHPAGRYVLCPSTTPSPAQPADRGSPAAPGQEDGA
Chain of Flt3 (P36888 27-993): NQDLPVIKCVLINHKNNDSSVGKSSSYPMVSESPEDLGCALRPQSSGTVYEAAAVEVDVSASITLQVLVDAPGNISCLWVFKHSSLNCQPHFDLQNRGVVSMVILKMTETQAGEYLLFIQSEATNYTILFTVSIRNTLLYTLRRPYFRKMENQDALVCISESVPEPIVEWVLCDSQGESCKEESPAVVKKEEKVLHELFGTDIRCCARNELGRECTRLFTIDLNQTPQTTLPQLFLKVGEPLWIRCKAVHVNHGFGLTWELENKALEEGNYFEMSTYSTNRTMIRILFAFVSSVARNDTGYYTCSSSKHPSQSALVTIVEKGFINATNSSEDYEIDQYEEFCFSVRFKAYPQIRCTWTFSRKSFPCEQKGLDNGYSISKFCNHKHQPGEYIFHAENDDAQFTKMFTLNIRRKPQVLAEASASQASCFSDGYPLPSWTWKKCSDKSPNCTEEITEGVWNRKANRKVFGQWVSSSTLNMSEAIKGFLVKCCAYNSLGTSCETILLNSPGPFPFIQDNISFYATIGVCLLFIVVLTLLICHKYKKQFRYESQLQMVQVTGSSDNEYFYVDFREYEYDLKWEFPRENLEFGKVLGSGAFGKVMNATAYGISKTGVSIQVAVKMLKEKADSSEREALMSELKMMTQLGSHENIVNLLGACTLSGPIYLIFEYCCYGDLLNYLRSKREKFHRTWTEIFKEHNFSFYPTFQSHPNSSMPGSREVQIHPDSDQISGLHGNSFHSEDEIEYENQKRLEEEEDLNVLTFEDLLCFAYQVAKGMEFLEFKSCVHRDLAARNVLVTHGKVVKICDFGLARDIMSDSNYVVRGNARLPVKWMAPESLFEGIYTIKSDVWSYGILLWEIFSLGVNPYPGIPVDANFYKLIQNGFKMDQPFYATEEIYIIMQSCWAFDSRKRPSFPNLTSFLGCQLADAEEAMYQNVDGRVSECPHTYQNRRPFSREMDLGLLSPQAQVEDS
Chain of MERTK (Q12866 21-999): as the sequence (Q12866 21-999) above
Chain of hERG (Q12809 whole entry): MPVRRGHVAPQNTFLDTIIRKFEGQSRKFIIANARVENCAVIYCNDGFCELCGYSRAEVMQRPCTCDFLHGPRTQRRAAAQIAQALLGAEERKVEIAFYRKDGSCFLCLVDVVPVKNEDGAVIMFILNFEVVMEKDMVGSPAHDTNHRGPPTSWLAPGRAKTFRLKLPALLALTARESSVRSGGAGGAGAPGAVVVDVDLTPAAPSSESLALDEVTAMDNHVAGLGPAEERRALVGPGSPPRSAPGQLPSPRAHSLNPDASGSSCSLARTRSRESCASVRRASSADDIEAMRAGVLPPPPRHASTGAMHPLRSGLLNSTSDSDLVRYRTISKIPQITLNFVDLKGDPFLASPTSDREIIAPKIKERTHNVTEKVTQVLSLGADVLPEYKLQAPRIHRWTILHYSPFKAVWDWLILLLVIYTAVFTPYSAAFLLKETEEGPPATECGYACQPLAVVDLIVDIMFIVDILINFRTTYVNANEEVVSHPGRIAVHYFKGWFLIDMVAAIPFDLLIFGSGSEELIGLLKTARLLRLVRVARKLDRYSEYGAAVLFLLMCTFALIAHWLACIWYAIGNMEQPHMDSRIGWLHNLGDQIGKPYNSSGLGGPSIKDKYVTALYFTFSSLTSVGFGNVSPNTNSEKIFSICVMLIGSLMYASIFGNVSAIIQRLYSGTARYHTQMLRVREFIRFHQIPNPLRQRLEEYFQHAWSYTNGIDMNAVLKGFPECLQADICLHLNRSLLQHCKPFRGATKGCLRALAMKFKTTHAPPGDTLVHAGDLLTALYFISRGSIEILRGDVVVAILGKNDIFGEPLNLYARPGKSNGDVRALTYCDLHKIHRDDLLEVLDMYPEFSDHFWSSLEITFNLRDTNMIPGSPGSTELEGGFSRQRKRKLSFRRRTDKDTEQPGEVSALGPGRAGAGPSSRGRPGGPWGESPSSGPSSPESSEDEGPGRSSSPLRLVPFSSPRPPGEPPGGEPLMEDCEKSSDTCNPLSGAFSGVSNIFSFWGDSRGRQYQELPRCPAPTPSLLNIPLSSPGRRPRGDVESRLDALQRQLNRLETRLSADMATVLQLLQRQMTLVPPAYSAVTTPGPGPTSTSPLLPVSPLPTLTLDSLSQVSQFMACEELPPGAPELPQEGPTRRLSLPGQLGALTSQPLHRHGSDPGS
Chain of MAP4K5 (KHS1) (Q9Y4K4 whole entry): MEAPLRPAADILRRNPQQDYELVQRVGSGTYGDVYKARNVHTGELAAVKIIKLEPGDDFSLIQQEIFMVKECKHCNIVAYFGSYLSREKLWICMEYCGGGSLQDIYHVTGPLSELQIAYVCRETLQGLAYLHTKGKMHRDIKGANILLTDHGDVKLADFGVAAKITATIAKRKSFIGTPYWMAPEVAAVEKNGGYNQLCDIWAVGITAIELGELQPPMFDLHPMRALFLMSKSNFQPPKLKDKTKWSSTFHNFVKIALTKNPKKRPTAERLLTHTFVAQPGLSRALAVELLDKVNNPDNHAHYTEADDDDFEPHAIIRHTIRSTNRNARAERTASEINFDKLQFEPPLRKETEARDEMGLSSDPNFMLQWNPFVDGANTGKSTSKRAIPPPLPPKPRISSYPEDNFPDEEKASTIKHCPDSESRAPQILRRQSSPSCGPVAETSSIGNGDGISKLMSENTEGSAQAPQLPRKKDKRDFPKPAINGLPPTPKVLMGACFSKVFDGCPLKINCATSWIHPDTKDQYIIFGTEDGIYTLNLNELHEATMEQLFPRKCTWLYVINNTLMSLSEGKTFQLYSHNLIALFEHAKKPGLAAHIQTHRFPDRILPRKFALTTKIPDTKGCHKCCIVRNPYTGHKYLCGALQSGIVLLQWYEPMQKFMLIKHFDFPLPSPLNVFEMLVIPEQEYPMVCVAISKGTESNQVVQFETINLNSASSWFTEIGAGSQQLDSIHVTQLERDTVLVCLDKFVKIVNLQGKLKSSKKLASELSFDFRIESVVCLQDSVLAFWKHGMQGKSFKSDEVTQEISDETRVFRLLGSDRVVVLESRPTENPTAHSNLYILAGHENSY

Structure (SMILES): Cc1cc(-c2c(C)nn(C)c2C)cnc1-c1nnc(N(C)Cc2ccc3ncc(-c4ccc(CN(C)C)cc4)n3c2)o1 [AZ14145845]
- IC50 (hERG): 5.7 µM
- HLM CLint (HLM intrinsic clearance): 195 µL/min/mg protein
- A2E (RPE marker) in the posterior part of the eye by MSI ([1]; animal no. 14 compared to animals no. 13 and 15): dramatic decrease
- Total concentration in the anterior region of the eye (QMSI) [1, 15]: ~ 11 µM
- Total concentration in the posterior region of the eye (QMSI) [1, 15]: ~ 9 µM
- Total concentration in the whole eye (QMSI) [1, 15]: ~ 3 µM
- ocular distribution by MSI ([1]; whole eye sections, 20 µm spatial resolution): largely localized in the pigmented retinal tissues of the RPE and choroid layers
- Solubility (Solubility): 938 µM (≈ 527 µg/mL)
- Mer enzyme (pIC50) (Mer): 9.0
- Mer cell (pIC50) (Mer; Cos-7 cell): 7.7 and 7.8
- Axl enzyme (pIC50) (Axl [2]): 7.9
- Axl cell (pIC50) (Axl [2]; Cos-7 cell): 7.0
- Flt3 enzyme (pIC50) (Flt3): < 4.5/ < 4.5
- Flt3 cell (pIC50) (Flt3; Cos-7 cell): < 4.5/ < 4.5
- bioavailability (Mouse pharmacokinetics; mouse): 15%
- clearance (Mouse pharmacokinetics; mouse): 44 mL/min/kg
- volume of distribution at steady state (Mouse pharmacokinetics; mouse): 3.7 L/kg
- dose dependence of Cmax and AUC (Mouse pharmacokinetics; up to 200 mg/kg): Dose linear increase
- ultra-structural findings by TEM (retina [3]): ultra-structural changes at the interface between the POS and the RPE
- Efferocytosis (pIC50) (macrophage efferocytosis): 7.6
- inhibition of MERTK in kinome profiling (MERTK): > 90%
- inhibition of AXL in kinome profiling (Axl [4]): > 90%
- Human PPB (% free) [5]: 14 % free
- difference in eye Kp, pigmented vs non-pigmented rats ([6]; assumed consequence of melanin binding): ~ ten-fold
- eye partition coefficient (Kp) ([6]; non-pigmented Han Wistar rat): 2.5
- eye partition coefficient (Kp) ([6]; pigmented Long Evans rat): 19
- weight gain above baseline [7]: 3–6%
- LogD7.4 (LogD7.4): 2.9
- accumulation in plasma [8]: no accumulation was observed
- average free cover over MERTK Cos-7 cell IC50 at Cmax [8]: 90 fold
- average free cover over MERTK Cos-7 cell IC50 at Cmin [8]: 21 fold
- efficacy in xenograft tumor model [9]: showed efficacy
- Mouse PPB (% free) [10]: 7.6 % free
- Total of any retinal degeneration/atrophy (of number examined) (retina [11]; 200 mg/kg BID, 28 days, one eye per mouse): 4 of 8
- length of the retina affected by focal lesion (retina [11]; animal no. 10, lesion midway between optic nerve and peripheral limit): approximately 25%
- extent of retina affected (retina [11]; animal no. 14, most severe microscopic changes): entire length of retina
- length of the retina affected by focal lesions (retina [11]; animal numbers 8 and 9, lesions towards the periphery of the retina): approximately 20%
- Number of animals with no H&E findings (retina [11]; n = 8 treated mice, 200 mg/kg BID, 28 days, one eye per mouse, 200 mg/kg): four of the eight and 4
- Moderate retinal degeneration/atrophy (number of animals) (retina [11]; n = 8 treated mice, diffuse distribution, animal 14): 1 with diffuse distribution
- Minimal retinal degeneration/atrophy (number of animals) (retina [11]; n = 8 treated mice, focal distribution, animals 8, 9, 10): 3 with focal distribution
- CaCo2 efflux ratio [12]: 10
- drop in the number of internalized POS [13]: ~60%
- inhibition of MAP4K5 (KHS1) in kinome profiling (MAP4K5 (KHS1)): > 75%

Structure (SMILES): CCCCNc1ncc2c(-c3ccc(F)cc3)nn(CC3CCC(N)CC3)c2n1 (stereo not shown) [UNC-569]
- electron microscopic evaluation of the retina (retina [14]; in vivo): accumulation of membrane-bound multi-lamellated bodies in the RPE cells
- microscopic examination of H&E-stained tissue sections of the eye (retina [14]; in vivo): No changes were detected
- duration of inhibition of MERTK phosphorylation in retinal tissue (retina [14]; post oral administration, ref Sayama et al. [2018]): up to 17 h
